# Measurements: paper PMC11637483, “Dissecting caspase-2-mediated cell death: from intrinsic PIDDosome activation to chemical modulation” (Protein & Cell, 2024)
# Values joined by “and” are separate entries in the source; they are usually repeats but may differ in a detail not shown here. Identical values can stand only once.
# Target: T1, MBP-CASP2(32–165), human caspase-2 pro-domain (Homo sapiens, UniProt P42575)
# T1 construct: cDNAs encoding BID and caspase-2 pro-domain (residues 32–165) were constructed into modified pET vectors; made in house; host or cells: E. coli BL21 (DE3)
# T1 sequence (P42575 32-165): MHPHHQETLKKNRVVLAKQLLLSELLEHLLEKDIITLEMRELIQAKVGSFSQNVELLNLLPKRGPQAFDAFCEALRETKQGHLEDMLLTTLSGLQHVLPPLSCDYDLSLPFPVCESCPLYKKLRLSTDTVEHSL
# Experiment: MicroScale Thermophoresis binding to MBP-fused caspase-2 pro-domain
# Conditions: MST, 25°C, PBST buffer; means ± s.d. from two determinations; read-out: KD (binding constant)
# Source text: The above results prompted us to reason whether HUHS015-36 could directly target caspase-2 for activation without the requirement of any other mediator. To directly test this hypothesis, we tried to obtain purified caspase-2 protein. The preparation of full-length caspase-2 protein is known to be technically challenging. Meanwhile, the CARD domain of a caspase often plays the role in sensing upstream signals, as exemplified by the CARD of caspase-2 that is recruited by RAIDD through the CARD–CARD interaction for assembling the PIDDosome. […]
# Figure 4. […] (A) The direct binding between HUHS015-36 and MBP-fused human caspase-2 pro-domain was detected by microscale thermophoresis (MST). […] The calculated dissociation constant (KD) is expressed as means ± s.d. from two determinations. […] ATP-based cell viability in panels (C–E) is expressed as mean ± s.d. from three technical replicates. […] TEXT PRINTED IN THE PICTURE: (A) HUHS015-36: MBP-CASP2(32–165) vs. HUHS015-36: KD (μmol/L): 22.05 ± 6.151; MBP vs. HUHS015-36: KD (μmol/L): Not detected
# MicroScale thermophoresis (MST) experiments were carried out at 25°C in the PBST Buffer (PBS with 0.05%, v/v Tween 20) by using a Monolith 2020 (TNG) (MM-208). […] The temperature-induced changes in fluorescence intensity of each sample in the capillary thermophoresis tubes were recorded by the Monolith instrument. […]
smiles,measurement,value
Cc1cccc2nc(-n3nc4c(c3O)CCCC4)[nH]c12 [HUHS015-36],Kd,~22 µM and 22.1 µM
